Values quoted from earlier work, collected in patent US20200040275A1, “AVIATION FUEL WITH A RENEWABLE OXYGENATE” (Swift Fuels, LLC, priority 2014, published 2020).

Experiments:
[1] = SDS data from third-party compliance reports
[2] = system: rat

Row | Structure (SMILES) | water solubility [g/100 g] | OSHA Hazards [1] | LD50 (rat, oral) [2] [mg/kg]
1 | CCOC(C)(C)C [ETBE, ethyl tert-butyl ether] | 1.2 | Irritant | 
2 | Cc1cccc(N)c1 [m-Toluidine] |  | Toxic. Causes cyanosis. | 
3 | CC(C)c1ccc(N)cc1 (single isomer, unassigned) [Cumidine, 4-isopropylaniline] |  | Irritant. Causes respiratory | 757
